Common to all, as to settings: SEM
For experiment [1], the target named is DR0301 (Homo sapiens, UniProt P01903+P01911, A100K/A102G/A103R/A169T/F55Y/I96L/K41T/L162R/M171V/P40S/Q125H/Q178H/Q39Y/R42S/S66N/T106N/W38E/Y61H). Type of experiment: binding.
Experiment [2] concerns the target DR1501 (Homo sapiens, UniProt P01903+P01911). Type of experiment: binding.
The target in experiment [3] is HLA-DR0101 (Homo sapiens, UniProt P01903+P01911, A100R/D57E/F55L/F60I/F76Y/I96L/L162R/M171V/P40L/Q125E/R42F/V115G/Y59C). The experiment in a line: biochemical.

Turning to `CC[C@H](C)[C@H](NC(=O)[C@H](CC(N)=O)NC(=O)[C@@H](N)CCC(=O)O)C(=O)N[C@@H](CCC(N)=O)C(=O)N[C@@H](CCCNC(=N)N)C(=O)N[C@@H](Cc1ccccc1)C(=O)N[C@@H](CC(C)C)C(=O)N1CCC[C@H]1C(=O)N[C@@H](CC(N)=O)C(=O)N1CCC[C@H]1C(=O)N[C@@H](C)C(=O)NCC(=O)N[C@H](C(=O)N[C@@H](CCC(N)=O)C(=O)N[C@@H](CC(C)C)C(=O)N[C@@H](CCC(=O)O)C(=O)N[C@@H](CC(=O)O)C(=O)N1CCC[C@H]1C(=O)N[C@@H](CCC(=O)O)C(=O)N[C@@H](Cc1ccccc1)C(=O)O)C(C)C` [FVIII589–608], in experiment [1], the 50% inhibitory concentration (IC50) (in general, the point on the concentration scale where inhibition reaches its midpoint) is 50 ± 4 µM.
Turning to `CC[C@H](C)[C@H](NC(=O)[C@H](CC(N)=O)NC(=O)[C@H](CCC(=O)O)NC(=O)[C@@H](NC(=O)[C@H](CC(C)C)NC(=O)[C@H](Cc1ccc(O)cc1)NC(=O)[C@H](Cc1c[nH]c2ccccc12)NC(=O)[C@H](CO)NC(=O)[C@H](CCCNC(=N)N)NC(=O)[C@H](CC(N)=O)NC(=O)[C@@H](N)CCC(=O)O)[C@@H](C)O)C(=O)N[C@@H](CCC(N)=O)C(=O)N[C@@H](CS)C(=O)N[C@@H](Cc1ccccc1)C(=O)N[C@@H](CC(C)C)C(=O)N1CCC[C@H]1C(=O)N[C@@H](CC(N)=O)C(=O)N1CCC[C@H]1C(=O)N[C@@H](C)C(=O)NCC(=O)O` [FVIII581–600,593C], the values for the IC50 in experiment [2] and in experiment [3] were 56 ± 4 µM and 50 ± 3 µM, respectively.

The values above are taken from publication PMC4323178 (Journal of thrombosis and haemostasis : JTH, 2011).
